Source: patent publication US20230301300A1, “HERBICIDAL COMPOSITIONS” (SYNGENTA CROP PROTECTION AG, priority 2020, published 2023)

Key:
Assay type in all cases: in vivo
[1] = test system: Abutilon theophrasti (ABUTH); test: B2 Post-Emergence Efficacy - Test 2; settings: 15 days after application, 0-100 scale
Procedure: (§1) Seeds of a variety of test species (see Table B1) were sown in standard soil in pots. After cultivation for 12 days (post-emergence) under controlled conditions in a glasshouse (at 24/18° C. or 20/16° C., at day/night; 16 hours light; 65% humidity), the plants were sprayed with an aqueous spray solution derived from the formulation of the technical active ingredient dissolved in IF50 (see Table B2 for composition) and adjuvant (Genapol X080) was added to the spray solution at a rate of 0.2% v/v.
(§2) After application, the test plants were grown in a glasshouse under controlled conditions (as above) and watered twice daily. Herbicidal activity was evaluated 15 days after application on a 0-100 scale. The results, where 0=no damage to test plant and 100=total kill of test plant are shown below in Tables 8 to 11.

[2] = test system: Ipomoea hederacea (IPOHE); test: B2 Post-Emergence Efficacy - Test 2; settings: 15 days after application, 0-100 scale
Procedure: as §1, §2

Hordeum vulgare (HORVW) = test: B2 Post-Emergence Efficacy - Test 2; settings: 15 days after application, 0-100 scale
Procedure: as §1, §2

Lolium perenne (LOLPE) [3] = test: B2 Post-Emergence Efficacy - Test 2; settings: 15 days after application, 0-100 scale
Procedure: as §1, §2

Veronica persica (VERPE) = test: B2 Post-Emergence Efficacy - Test 2; settings: 15 days after application, 0-100 scale
Procedure: as §1, §2

Brassica napus (BRSNN) = test: B2 Post-Emergence Efficacy - Test 2; settings: 15 days after application, 0-100 scale
Procedure: as §1, §2

[4] = test system: Chenopodium album (CHEAL); test: B2 Post-Emergence Efficacy - Test 2; settings: 15 days after application, 0-100 scale
Procedure: as §1, §2

Beta vulgaris (BEAVA) = test: B2 Post-Emergence Efficacy - Test 2; settings: 15 days after application, 0-100 scale
Procedure: as §1, §2

Sinapis arvensis (SINAR) = test: B2 Post-Emergence Efficacy - Test 2; settings: 15 days after application, 0-100 scale
Procedure: as §1, §2

Kochia scoparia (KSHSC) = test: B2 Post-Emergence Efficacy - Test 2; settings: 15 days after application, 0-100 scale
Procedure: as §1, §2

[5] = test system: Triticum aestivum (TRZAW); test: B2 Post-Emergence Efficacy - Test 2; settings: 15 days after application, 0-100 scale
Procedure: as §1, §2

[6] = test system: Amaranthus retroflexus (AMARE); test: B2 Post-Emergence Efficacy - Test 2; settings: 15 days after application, 0-100 scale
Procedure: as §1, §2

Stellaria media (STEME) = test: B2 Post-Emergence Efficacy - Test 2; settings: 15 days after application, 0-100 scale
Procedure: as §1, §2

[7] = test system: Ipomoea hederacea (IPOHE); test: B1 Post-Emergence Efficacy - Test 1; settings: 1000 g/ha, after 13 days, five point scale
Procedure: (§3) Seeds of a variety of test species are sown in standard soil in pots:— Solanum nigrum (SOLNI), Amaranthus retoflexus (AMARE), Setaria faberi (SETFA), Alopecurus myosuroides (ALOMY), Echinochloa crus-galli (ECHCG), Ipomoea hederacea (IPOHE), Lolium perenne (LOLPE). After 8 days cultivation (post-emergence) under controlled conditions in a glasshouse (at 24/16° C., day/night; 14 hours light; 65% humidity), the plants are sprayed with an aqueous spray solution derived from the formulation of the technical active ingredient in acetone/water (50:50) solution containing 0.5% Tween 20 (polyoxyethylene sorbitan monolaurate, CAS RN 9005-64-5). Compounds are applied at 1000 g/ha. The test plants are then grown in a glasshouse under controlled conditions in a glasshouse (at 24/16° C., day/night; 14 hours light; 65% humidity) and watered twice daily. After 13 days, the test is evaluated for the percentage damage caused to the plant. The biological activities are assessed on a five point scale (5=80-100%; 4=60-79%; 3=40-59%; 2=20-39%; 1=0-19%). A blank value in the table is indicative that the compound was not tested on that species.

Setaria faberi (SETFA) = test: B1 Post-Emergence Efficacy - Test 1; settings: 1000 g/ha, after 13 days, five point scale
Procedure: as §3

Lolium perenne (LOLPE) [8] = test: B1 Post-Emergence Efficacy - Test 1; settings: 1000 g/ha, after 13 days, five point scale
Procedure: as §3

[9] = test system: Amaranthus retoflexus (AMARE); test: B1 Post-Emergence Efficacy - Test 1; settings: 1000 g/ha, after 13 days, five point scale
Procedure: as §3

Solanum nigrum (SOLNI) = test: B1 Post-Emergence Efficacy - Test 1; settings: 1000 g/ha, after 13 days, five point scale
Procedure: as §3

[10] = test system: Echinochloa crus-galli (ECHCG); test: B1 Post-Emergence Efficacy - Test 1; settings: 1000 g/ha, after 13 days, five point scale
Procedure: as §3

For `Cc1nn(C)c(=O)c(-c2c(F)ccc(Cl)c2CCc2ccc(F)cc2)c1O` [Compound 1.048, 4-[3-chloro-6-fluoro-2-[2-(4-fluorophenyl)ethyl]phenyl]-5-hydroxy-2,6-dimethyl-pyridazin-3-one], the “Herbicidal activity ABUTH” value ([1]; 15 g/Ha) was 60, the “Herbicidal activity ABUTH” value ([1]; 30 g/Ha) was 80 and the “Herbicidal activity ABUTH” value ([1]; 60 g/Ha) was 90. The “Herbicidal activity ABUTH” value ([1]; 125 g/Ha) was 90, the “Herbicidal activity ABUTH” value ([1]; 250 g/Ha) was 90 and the “Herbicidal activity ABUTH” value ([1]; 500 g/Ha) was 100. The “Herbicidal activity IPOHE” value ([2]; 15 g/Ha) was 70, the “Herbicidal activity IPOHE” value ([2]; 30 g/Ha) was 80 and the “Herbicidal activity IPOHE” value ([2]; 60 g/Ha) was 100. The “Herbicidal activity IPOHE” value ([2]; 125 g/Ha) was 100, the “Herbicidal activity IPOHE” value ([2]; 250 g/Ha) was 100 and the “Herbicidal activity IPOHE” value ([2]; 500 g/Ha) was 100. For the same compound, the “Herbicidal activity HORVW” value (Hordeum vulgare (HORVW); 15 g/Ha) was 10, the “Herbicidal activity HORVW” value (Hordeum vulgare (HORVW); 30 g/Ha) was 10 and the “Herbicidal activity HORVW” value (Hordeum vulgare (HORVW); 60 g/Ha) was 10. For the same compound, the “Herbicidal activity HORVW” value (Hordeum vulgare (HORVW); 125 g/Ha) was 40, the “Herbicidal activity HORVW” value (Hordeum vulgare (HORVW); 250 g/Ha) was 40 and the “Herbicidal activity HORVW” value (Hordeum vulgare (HORVW); 500 g/Ha) was 80. The “Herbicidal activity LOLPE” value (Lolium perenne (LOLPE) [3]; 15 g/Ha) was 20, the “Herbicidal activity LOLPE” value (Lolium perenne (LOLPE) [3]; 30 g/Ha) was 40 and the “Herbicidal activity LOLPE” value (Lolium perenne (LOLPE) [3]; 60 g/Ha) was 90. The “Herbicidal activity LOLPE” value (Lolium perenne (LOLPE) [3]; 125 g/Ha) was 90, the “Herbicidal activity LOLPE” value (Lolium perenne (LOLPE) [3]; 250 g/Ha) was 90 and the “Herbicidal activity LOLPE” value (Lolium perenne (LOLPE) [3]; 500 g/Ha) was 90. The “Herbicidal activity VERPE” value (Veronica persica (VERPE); 15 g/Ha) was 60, the “Herbicidal activity VERPE” value (Veronica persica (VERPE); 30 g/Ha) was 80 and the “Herbicidal activity VERPE” value (Veronica persica (VERPE); 60 g/Ha) was 90. For the same compound, the “Herbicidal activity VERPE” value (Veronica persica (VERPE); 125 g/Ha) was 80, the “Herbicidal activity VERPE” value (Veronica persica (VERPE); 250 g/Ha) was 100 and the “Herbicidal activity VERPE” value (Veronica persica (VERPE); 500 g/Ha) was 100. The “Herbicidal activity BRSNN” value (Brassica napus (BRSNN); 15 g/Ha) was 90, the “Herbicidal activity BRSNN” value (Brassica napus (BRSNN); 30 g/Ha) was 90 and the “Herbicidal activity BRSNN” value (Brassica napus (BRSNN); 60 g/Ha) was 90. The “Herbicidal activity BRSNN” value (Brassica napus (BRSNN); 125 g/Ha) was 90, the “Herbicidal activity BRSNN” value (Brassica napus (BRSNN); 250 g/Ha) was 90 and the “Herbicidal activity BRSNN” value (Brassica napus (BRSNN); 500 g/Ha) was 90. The “Herbicidal activity CHEAL” value ([4]; 125 g/Ha) was 70, the “Herbicidal activity CHEAL” value ([4]; 250 g/Ha) was 90 and the “Herbicidal activity CHEAL” value ([4]; 500 g/Ha) was 100. For the same compound, the “Herbicidal activity BEAVA” value (Beta vulgaris (BEAVA); 15 g/Ha) was 70, the “Herbicidal activity BEAVA” value (Beta vulgaris (BEAVA); 30 g/Ha) was 80 and the “Herbicidal activity BEAVA” value (Beta vulgaris (BEAVA); 60 g/Ha) was 80. For the same compound, the “Herbicidal activity BEAVA” value (Beta vulgaris (BEAVA); 125 g/Ha) was 90, the “Herbicidal activity BEAVA” value (Beta vulgaris (BEAVA); 250 g/Ha) was 90 and the “Herbicidal activity BEAVA” value (Beta vulgaris (BEAVA); 500 g/Ha) was 90. The “Herbicidal activity SINAR” value (Sinapis arvensis (SINAR); 15 g/Ha) was 40, the “Herbicidal activity SINAR” value (Sinapis arvensis (SINAR); 30 g/Ha) was 80 and the “Herbicidal activity SINAR” value (Sinapis arvensis (SINAR); 60 g/Ha) was 80. The “Herbicidal activity SINAR” value (Sinapis arvensis (SINAR); 125 g/Ha) was 90, the “Herbicidal activity SINAR” value (Sinapis arvensis (SINAR); 250 g/Ha) was 90 and the “Herbicidal activity SINAR” value (Sinapis arvensis (SINAR); 500 g/Ha) was 90. The “Herbicidal activity KCHSC” value (Kochia scoparia (KSHSC); 15 g/Ha) was 0, the “Herbicidal activity KCHSC” value (Kochia scoparia (KSHSC); 30 g/Ha) was 0 and the “Herbicidal activity KCHSC” value (Kochia scoparia (KSHSC); 60 g/Ha) was 10. For the same compound, the “Herbicidal activity KCHSC” value (Kochia scoparia (KSHSC); 125 g/Ha) was 20, the “Herbicidal activity KCHSC” value (Kochia scoparia (KSHSC); 250 g/Ha) was 50 and the “Herbicidal activity KCHSC” value (Kochia scoparia (KSHSC); 500 g/Ha) was 80. For the same compound, the “Herbicidal activity TRZAW” value ([5]; 15 g/Ha) was 0, the “Herbicidal activity TRZAW” value ([5]; 30 g/Ha) was 10 and the “Herbicidal activity TRZAW” value ([5]; 60 g/Ha) was 20. The “Herbicidal activity TRZAW” value ([5]; 125 g/Ha) was 20, the “Herbicidal activity TRZAW” value ([5]; 250 g/Ha) was 50 and the “Herbicidal activity TRZAW” value ([5]; 500 g/Ha) was 80. The “Herbicidal activity AMARE” value ([6]; 15 g/Ha) was 60, the “Herbicidal activity AMARE” value ([6]; 30 g/Ha) was 80 and the “Herbicidal activity AMARE” value ([6]; 60 g/Ha) was 90. For the same compound, the “Herbicidal activity AMARE” value ([6]; 125 g/Ha) was 90, the “Herbicidal activity AMARE” value ([6]; 250 g/Ha) was 100 and the “Herbicidal activity AMARE” value ([6]; 500 g/Ha) was 100. The “Herbicidal activity STEME” value (Stellaria media (STEME); 15 g/Ha) was 90, the “Herbicidal activity STEME” value (Stellaria media (STEME); 30 g/Ha) was 90 and the “Herbicidal activity STEME” value (Stellaria media (STEME); 60 g/Ha) was 90. For the same compound, the “Herbicidal activity STEME” value (Stellaria media (STEME); 125 g/Ha) was 100, the “Herbicidal activity STEME” value (Stellaria media (STEME); 250 g/Ha) was 100 and the “Herbicidal activity STEME” value (Stellaria media (STEME); 500 g/Ha) was 100. The “percentage damage caused to the plant, IPOHE” value [7] was 5 (5=80-100%), the “percentage damage caused to the plant, SETFA” value (Setaria faberi (SETFA)) was 5 (5=80-100%) and the “percentage damage caused to the plant, LOLPE” value (Lolium perenne (LOLPE) [8]) was 5 (5=80-100%). The “percentage damage caused to the plant, AMARE” value [9] was 5 (5=80-100%), the “percentage damage caused to the plant, SOLNI” value (Solanum nigrum (SOLNI)) was 5 (5=80-100%) and the “percentage damage caused to the plant, ECHCG” value [10] was 5 (5=80-100%).
